EC50 data for 22 compounds are collected here from US11174260B2, “Compounds and methods for the treatment of parasitic diseases” (THE BROAD INSTITUTE, INC., priority 2017, dated 2021).

pEC50: −log10 of the molar value.

In the first assay the test system is P. falciparum Dd2. Put plainly: In vitro P. falciparum blood-stage culture and assay. Type of assay: cell-based. Particulars: 72 h incubation, SYBR Green I readout, read-out: Pf Dd2. How it is done:
Strains of P. falciparum (Dd2, 3D7, D6, K1, NF54, V1/3, HB3, 7G8, FCB and TM90C2B) were obtained from the Malaria Research and Reference Reagent Resource Center (MR4). P. falciparum isolates were maintained with O-positive human blood in an atmosphere of 93% N2, 4% CO2, 3% O2 at 37° C. in complete culturing medium (10.4 g/L RPMI 1640, 5.94 g/L HEPES, 5 g/L albumax II, 50 mg/L hypoxanthine, 2.1 g/L sodium bicarbonate, 10% human serum and 43 mg/L gentamicin). Parasites were cultured in medium until parasitaemia reached 3-8%. Parasitaemia was determined by checking at least 500 red blood cells from a Giemsa-stained blood smear. For the compound screening, a parasite dilution at 2.0% parasitaemia and 2.0% haematocrit was created with medium. 25 μl of medium was dispensed into 384-well black, clear-bottom plates and 100 nl of each compound in DMSO was transferred into assay plates along with the control compound (mefloquine). Next, 25 μl of the parasite suspension in medium was dispensed into the assay plates giving a final parasitaemia of 1% and a final haematocrit of 1%. The assay plates were incubated for 72 h at 37° C. 10 μl of detection reagent consisting of 10×SYBR Green I (Invitrogen; supplied in 10,000× concentration) in lysis buffer (20 mM Tris-HCl, 5 mM EDTA, 0.16% (w/v) Saponin, 1.6% (v/v) Triton X-100) was dispensed into the assay plates. For optimal staining, the assay plates were left at room temperature for 24 h in the dark. The assay plates were read with 505 dichroic mirrors with 485 nm excitation and 530 nm emission settings in an Envision (PerkinElmer).
In the case of `COc1ccc(NC(=O)N2CCC(O)CN3[C@H](CN(C)C)[C@H](c4ccc(C#Cc5ccccc5)cc4)[C@@H]3C2)cc1` (single isomer, unassigned) [Example E16], the pEC50 is less than 6.60.
Still for that read-out and setting: the same measure for `COc1ccc(NC(=O)N2CCC(O)CN3[C@H](CN(C)C)[C@H](c4ccc(C#Cc5ccccc5)cc4)[C@@H]3C2)cc1` (single isomer, unassigned) [Example E17]: more than 7.30.

The same assay, now with this note: Plasmodium falciparum, DD2, 72 h, 72 h incubation, SYBR Green I readout, read-out: Pf Dd2.
On to `CN(C)C[C@@H]1[C@H](c2ccc(C#Cc3ccccc3)cc2)[C@@H]2CN(C(=O)Nc3ccc(OC4CC4)cc3)C[C@@H](O)[C@@H](O)CN12` (single isomer, unassigned) [Example E1], for which the pEC50 is more than 7.30.
As to `COc1ccc(NC(=O)N2C[C@@H](OC)[C@@H](OC)CN3[C@H](CN(C)C)[C@H](c4ccc(C#Cc5ccccc5)cc4)[C@@H]3C2)cc1` [Example E2, (3S,4R,8R,9S,10S)-10-((dimethylamino)methyl)-3,4-dimethoxy-N-(4-methoxyphenyl)-9-(4-(phenylethynyl)phenyl)-1,6-diazabicyclo[6.2.0]decane-6-carboxamide], the pEC50 is more than 7.30.
Still for that read-out and setting: the same measure for `COc1ccc(NC(=O)N2C[C@@H](N(C)C)CCN3[C@H](CO)[C@H](c4ccc(C#Cc5ccccc5)cc4)[C@@H]3C2)cc1` [Example E3, (4S,8R,9R,10S)-4-(dimethylamino)-10-(hydroxymethyl)-N-(4-methoxyphenyl)-9-(4-(phenylethynyl)phenyl)-1,6-diazabicyclo[6.2.0]decane-6-carboxamide]: less than 6.60.
`COc1ccc(NC(=O)N2C[C@@H](O)[C@@H](O)CN3[C@H](CN(C)C)[C@H](c4ccc(C#Cc5ccccc5)cc4)[C@@H]3C2)cc1` [Example E5, (3S,4R,8R,9S,10S)-10-((dimethylamino)methyl)-3,4-dihydroxy-N-(4-methoxyphenyl)-9-(4-(phenylethynyl)phenyl)-1,6-diazabicyclo[6.2.0]decane-6-carboxamide]: the pEC50 was more than 7.30.
The same measure, in the same setting: the same measure for `COc1ccc(NC(=O)N2C[C@@H](O)[C@@H](O)CN3[C@H](CN(C)C)[C@H](c4ccc(C#Cc5ccccc5F)cc4)[C@@H]3C2)cc1` [Example E7, (3S,4R,8R,9S,10S)-10-[(dimethylamino)methyl]-9-[4-[2-(2-fluorophenyl)ethynyl]phenyl]-3,4-dihydroxy-N-(4-methoxyphenyl)-1,6-diazabicyclo[6.2.0]decane-6-carboxamide]: more than 7.30.
Same read-out and setting: the same measure for `COc1ccc(NC(=O)N2C[C@H](O)[C@H](O)CN3[C@H](CN(C)C)[C@H](c4ccc(C#Cc5ccccc5F)cc4)[C@@H]3C2)cc1` [Example E8, (3R,4S,8R,9S,10S)-10-[(dimethylamino)methyl]-9-[4-[2-(2-fluorophenyl)ethynyl]phenyl]-3,4-dihydroxy-N-(4-methoxyphenyl)-1,6-diazabicyclo[6.2.0]decane-6-carboxamide]: 6.60 to 7.30.
On to `CCN(CC)C[C@@H]1[C@H](c2ccc(C#Cc3ccccc3)cc2)[C@@H]2CN(C(=O)Nc3ccc(OC)cc3)C[C@@H](O)[C@@H](O)CN12` [Example E9, (3S,4R,8R,9S,10S)-10-(diethylaminomethyl)-3,4-dihydroxy-N-(4-methoxyphenyl)-9-[4-(2-phenylethynyl)phenyl]-1,6-diazabicyclo[6.2.0]decane-6-carboxamide], for which the pEC50 is more than 7.30.
On the same count and under the same terms, as for `COc1ccc(NC(=O)N2C[C@@H](O)[C@@H](O)CN3[C@H](CN(C)C(C)C)[C@H](c4ccc(C#Cc5ccccc5)cc4)[C@@H]3C2)cc1` [Example E10, (3S,4R,8R,9S,10S)-3,4-dihydroxy-10-[[isopropyl(methyl)amino]methyl]-N-(4-methoxyphenyl)-9-[4-(2-phenylethynyl)phenyl]-1,6-diazabicyclo[6.2.0]decane-6-carboxamide], the figure is more than 7.30; as for `COc1ccc(NC(=O)N2C[C@H](O)[C@H](O)CN3[C@H](CN(C)C(C)C)[C@H](c4ccc(C#Cc5ccccc5)cc4)[C@@H]3C2)cc1` [Example E11, (3R,4S,8R,9S,10S)-3,4-dihydroxy-10-[[isopropyl(methyl)amino]methyl]-N-(4-methoxyphenyl)-9-[4-(2-phenylethynyl)phenyl]-1,6-diazabicyclo[6.2.0]decane-6-carboxamide], 6.60 to 7.30.
On the same count and under the same terms, the same measure for `COc1ccc(NC(=O)N2C[C@@H](O)[C@@H](O)CN3[C@H](CN(C)C)[C@H](c4ccc(C#Cc5cccc(F)c5F)cc4)[C@@H]3C2)cc1` [Example E12, (3S,4R,8R,9S,10S)-9-(4-((2,3-difluorophenyl)ethynyl)phenyl)-10-((dimethylamino)methyl)-3,4-dihydroxy-N-(4-methoxyphenyl)-1,6-diazabicyclo[6.2.0]decane-6-carboxamide]: 6.60 to 7.30; for `COc1ccc(NC(=O)N2C[C@H](O)[C@H](O)CN3[C@H](CN(C)C)[C@H](c4ccc(C#Cc5cccc(F)c5F)cc4)[C@@H]3C2)cc1` [Example E13, (3R,4S,8R,9S,10S)-9-[4-[2-(2,3-difluorophenyl)ethynyl]phenyl]-10-[(dimethylamino)methyl]-3,4-dihydroxy-N-(4-methoxyphenyl)-1,6-diazabicyclo[6.2.0]decane-6-carboxamide]: more than 7.30.
With `COc1ccc(NC(=O)N2C[C@H]3OCCO[C@H]3CN3[C@H](CN(C)C)[C@H](c4ccc(C#Cc5ccccc5)cc4)[C@@H]3C2)cc1` [Example E14, (4aR,7aR,8S,9S,11aS)-9-((dimethylamino)methyl)-N-(4-methoxyphenyl)-8-(4-(phenylethynyl)phenyl)octahydro-2H-azeto[1,2-a][1,4]dioxino[2,3-f][1,4]diazocine-6(3H)-carboxamide], the pEC50 was more than 7.30.
On the same count and under the same terms, the same measure for `COc1ccc(NC(=O)N2C[C@@H](O)[C@@H](O)CN3[C@H](CO)[C@H](c4ccc(C#Cc5cccnc5)cc4)[C@@H]3C2)cc1` [Example E22, (3S,4R,8R,9R,10S)-3,4-dihydroxy-10-(hydroxymethyl)-N-(4-methoxyphenyl)-9-(4-(pyridin-3-ylethynyl)phenyl)-1,6-diazabicyclo[6.2.0]decane-6-carboxamide]: less than 6.60.
The same measure, in the same setting: as for `COc1ccc(NC(=O)N2C[C@H](O)[C@H](O)CN3[C@H](CO)[C@H](c4ccc(C#Cc5cccnc5)cc4)[C@@H]3C2)cc1` [Example E23, (3R,4S,8R,9R,10S)-3,4-dihydroxy-10-(hydroxymethyl)-N-(4-methoxyphenyl)-9-(4-(pyridin-3-ylethynyl)phenyl)-1,6-diazabicyclo[6.2.0]decane-6-carboxamide], the figure is 6.60 to 7.30; as for `COc1ccc(NC(=O)N2C[C@@H](O)CCN3[C@H](CN(C)C)[C@H](c4ccc(C#Cc5ccccc5)cc4)[C@@H]3C2)cc1` [Example E24, (4S,8R,9S,10S)-10-[(dimethylamino)methyl]-4-hydroxy-N-(4-methoxyphenyl)-9-[4-(2-phenylethynyl)phenyl]-1,6-diazabicyclo[6.2.0]decane-6-carboxamide], less than 6.60.
Same read-out and setting: as for `COc1ccc(NC(=O)N2CCC(CN(C)C)CN3[C@H](CN(C)C)[C@H](c4ccc(C#Cc5ccccc5)cc4)[C@@H]3C2)cc1` (stereo partly drawn) [Example E25, (8R,9S,10S)-3,10-bis[(dimethylamino)methyl]-N-(4-methoxyphenyl)-9-[4-(2-phenylethynyl)phenyl]-1,6-diazabicyclo[6.2.0]decane-6-carboxamide], the figure is 6.60 to 7.30; as for `COc1ccc(NC(=O)N2CC[C@@H](N(C)C)CN3[C@H](CO)[C@H](c4ccc(C#Cc5ccccc5)cc4)[C@@H]3C2)cc1` [Example E28, (3R,8R,9R,10S)-3-(dimethylamino)-10-(hydroxymethyl)-N-(4-methoxyphenyl)-9-[4-(2-phenylethynyl)phenyl]-1,6-diazabicyclo[6.2.0]decane-6-carboxamide], 6.60 to 7.30.
As for `COc1ccc(NC(=O)N2CC[C@H](N(C)C)CN3[C@H](CO)[C@H](c4ccc(C#Cc5ccccc5)cc4)[C@@H]3C2)cc1` [Example E29, (3S,8R,9R,10S)-3-(dimethylamino)-10-(hydroxymethyl)-N-(4-methoxyphenyl)-9-(4-(phenylethynyl)phenyl)-1,6-diazabicyclo[6.2.0]decane-6-carboxamide], the pEC50 was 6.60 to 7.30.
On the same count and under the same terms, the same measure for `COc1ccc(NC(=O)N2C[C@H](N(C)C)CCN3[C@H](CO)[C@H](c4ccc(C#Cc5ccccc5)cc4)[C@@H]3C2)cc1` [Example E30, (4R,8R,9R,10S)-4-(dimethylamino)-10-(hydroxymethyl)-N-(4-methoxyphenyl)-9-(4-(phenylethynyl)phenyl)-1,6-diazabicyclo[6.2.0]decane-6-carboxamide]: less than 6.60; for `COc1ccc(NC(=O)N2CC(CN(C)C)CCN3[C@H](CO)[C@H](c4ccc(C#Cc5ccccc5)cc4)[C@@H]3C2)cc1` (stereo partly drawn) [Example E31, (8R,9R,10S)-4-((dimethylamino)methyl)-10-(hydroxymethyl)-N-(4-methoxyphenyl)-9-(4-(phenylethynyl)phenyl)-1,6-diazabicyclo[6.2.0]decane-6-carboxamide]: less than 6.60.
